Data reported in publication PMC8374649, “IBI362 (LY3305677), a weekly-dose GLP-1 and glucagon receptor dual agonist, in Chinese adults with overweight or obesity: A randomised, placebo-controlled, multiple ascending dose phase 1b study” (EClinicalMedicine, 2021).

System: Chinese adults with overweight or obesity
Assay: Safety and tolerability (treatment emergent adverse events), multiple ascending dose phase 1b study
Type: in vivo, human
Protocol: The study included a 3-week screening period, a 12-week treatment period and an 8-week safety follow-up period. During the 12-week treatment period, the dose of IBI362 or placebo was escalated within each cohort according to one of the three dose-escalation schedules (Fig. S1). The dose-escalation regimen for the 3.0 mg cohort was 1.0 mg for 4 weeks, followed by 2.0 mg for 4 weeks and then 3.0 mg for the final 4 weeks. The dose-escalation regimen for the 4.5 mg cohort was 1.5 mg for 4 weeks, followed by 3.0 mg for 4 weeks and then 4.5 mg for the final 4 weeks. The dose-escalation regimen for the 6.0 mg cohort was 2.0 mg for 4 weeks, followed by 4.0 mg for 4 weeks and then 6.0 mg for the final 4 weeks. The 6.0 mg cohort started dosing after tolerability evaluation of 1.5 mg dosing in the 4.5 mg cohort. The internal unblinded safety monitoring group was responsible for the safety monitoring. All treatments were subcutaneously administered once a week. Investigators and authorized study personnel in each centre recorded the study data into the electronic case report forms (eCRFs), which were reviewed and validated by clinical research associates (CRAs). The data in the eCRFs were submitted to the electronic data capture (EDC) database. HbA1c, fasting plasma glucose and fasting insulin tests were performed in a central lab (Wuxi AppTec Inc.).
The primary endpoints of the study were safety and tolerability of IBI362. Adverse events (AEs) were categorised according to the Medical Dictionary for Regulatory Activities system organ class and preferred terms. Treatment emergent adverse events (TEAEs) and serious adverse events were monitored in all participants throughout the treatment period and the safety follow-up period. The severity of the AEs (mild, moderate or severe) and the association between an AE and the study drug was assessed by investigators based on pre-specified criteria.
Safety analyses were done in the safety population (defined as all participants who received at least one dose of the study treatment). Pharmacokinetic analyses were done in the pharmacokinetic population (defined as all participants who received at least one dose of IBI362 and had at least one valid plasma concentration assessment). Pharmacodynamic analyses were done in the pharmacodynamic population (defined as all participants who received at least one dose of the study treatment and had baseline and at least one valid assessment). Efficacy analyses were done in the efficacy population (defined as all participants who received at least one dose of the study treatment and had at least one post-baseline assessment).

[1] = 3.0 mg cohort (1.0-2.0-3.0 mg sc once weekly, 4 weeks each), n = 8
[2] = 4.5 mg cohort (1.5-3.0-4.5 mg sc once weekly, 4 weeks each), n = 8
[3] = 6.0 mg cohort (2.0-4.0-6.0 mg sc once weekly, 4 weeks each), n = 8

## CC(C)C[C@H](NC(=O)[C@H](CC(C)C)NC(=O)[C@H](Cc1c[nH]c2ccccc12)NC(=O)[C@H](CCC(=O)O)NC(=O)[C@@H](NC(=O)[C@H](Cc1ccccc1)NC(=O)[C@H](CCC(=O)O)NC(=O)[C@H](CCCCNC(=O)COCCOCCNC(=O)COCCOCCNC(=O)CC[C@H](NC(=O)CCCCCCCCCCCCCCCCCCC(=O)O)C(=O)O)NC(=O)[C@H](C)NC(=O)[C@H](CCCCN)NC(=O)[C@H](CCCCN)NC(=O)[C@H](CCC(=O)O)NC(=O)[C@H](CC(=O)O)NC(=O)[C@H](CC(C)C)NC(=O)[C@H](Cc1ccc(O)cc1)NC(=O)[C@H](CCCCN)NC(=O)[C@H](CO)NC(=O)[C@H](Cc1ccc(O)cc1)NC(=O)[C@H](CC(=O)O)NC(=O)[C@H](CO)NC(=O)[C@@H](NC(=O)[C@H](Cc1ccccc1)NC(=O)[C@@H](NC(=O)CNC(=O)[C@H](CCC(N)=O)NC(=O)C(C)(C)NC(=O)[C@@H](N)Cc1c[nH]cn1)[C@@H](C)O)[C@@H](C)O)C(C)C)C(=O)N[C@@H](CCC(=O)O)C(=O)NCC(=O)NCC(=O)N1CCC[C@H]1C(=O)N[C@@H](CO)C(=O)N[C@@H](CO)C(=O)NCC(N)=O [IBI362]
[1]
  Abdominal distension: 1 (12.5) n (%)
  Abdominal pain: 0 n (%)
  Atrioventricular block first degree: 1 (12.5) n (%)
  Back pain: 1 (12.5) n (%)
  Blood glucose increased: 0 n (%)
  Calculus urinary: 1 (12.5) n (%)
  Cardiac disorders (system organ class): 1 (12.5) n (%)
  Constipation: 1 (12.5) n (%)
  Decreased appetite: 1 (12.5) n (%)
  Diarrhea: 0 n (%)
  Dry mouth: 0 n (%)
  Dyslipidaemia: 0 n (%)
  Dysmenorrhoea: 1 (12.5) n (%)
  Dyspepsia: 0 n (%)
  Fatigue: 0 n (%)
  Folliculitis: 0 n (%)
  Gastrointestinal AE, Mild: 2 (25.0) n (%)
  Gastrointestinal AE, Moderate: 1 (12.5) n (%)
  Gastrointestinal disorders (system organ class): 4 (50.0) n (%)
  Gastrointestinal inflammation: 1 (12.5) n (%)
  General disorders and administration site conditions (system organ class): 1 (12.5) n (%)
  Hiccups: 0 n (%)
  Hyperlipidaemia: 0 n (%)
  Hyperuricaemia: 0 n (%)
  Hypoglycaemia event: 0 n (%)
  Infections and infestations (system organ class): 4 (50.0) n (%)
  Injury, poisoning and procedural complications (system organ class): 1 (12.5) n (%)
  Investigations (system organ class): 0 n (%)
  Menstruation irregular: 0 n (%)
  Mental fatigue: 0 n (%)
  Metabolism and nutrition disorders (system organ class): 1 (12.5) n (%)
  Mouth ulceration: 1 (12.5) n (%)
  Musculoskeletal and connective tissue disorders (system organ class): 1 (12.5) n (%)
  Myocardial ischemia: 0 n (%)
  Nasopharyngitis: 1 (12.5) n (%)
  Nausea: 0 n (%)
  Neutrophil count increased: 0 n (%)
  Oropharyngeal pain: 0 n (%)
  Proteinuria: 0 n (%)
  Psychiatric disorders (system organ class): 0 n (%)
  Pyrexia: 1 (12.5) n (%)
  Renal and urinary disorders (system organ class): 1 (12.5) n (%)
  Reproductive system and breast disorders (system organ class): 1 (12.5) n (%)
  Respiratory, thoracic and mediastinal disorders (system organ class): 0 n (%)
  Serious adverse event: 0 n (%)
  Sinus tachycardia: 0 n (%)
  Skin and subcutaneous tissue disorders (system organ class): 1 (12.5) n (%)
  Soft tissue injury: 1 (12.5) n (%)
  Starvation: 0 n (%)
  TEAE (individuals with ≥ 1 TEAE): 6 (75.0) n (%)
  Thermal burn: 0 n (%)
  Tonsillitis: 1 (12.5) n (%)
  Treatment-related AE: 3 (37.5) n (%)
  Upper respiratory tract infection: 2 (25.0) n (%)
  Urticaria: 1 (12.5) n (%)
  Vomiting: 1 (12.5) n (%)
  White blood cell count increased: 0 n (%)
[2]
  Abdominal distension: 0 n (%)
  Abdominal pain: 2 (25.0) n (%)
  Atrioventricular block first degree: 0 n (%)
  Back pain: 0 n (%)
  Blood glucose increased: 0 n (%)
  Calculus urinary: 0 n (%)
  Cardiac disorders (system organ class): 2 (25.0) n (%)
  Constipation: 0 n (%)
  Decreased appetite: 5 (62.5) n (%)
  Diarrhea: 3 (37.5) n (%)
  Dry mouth: 2 (25.0) n (%)
  Dyslipidaemia: 1 (12.5) n (%)
  Dysmenorrhoea: 0 n (%)
  Dyspepsia: 0 n (%)
  Fatigue: 1 (12.5) n (%)
  Folliculitis: 0 n (%)
  Gastrointestinal AE: 5 (62.5) n (%)
  Gastrointestinal AE, Mild: 5 (62.5) n (%)
  Gastrointestinal AE, Moderate: 0 n (%)
  Gastrointestinal disorders (system organ class): 5 (62.5) n (%)
  Gastrointestinal inflammation: 0 n (%)
  General disorders and administration site conditions (system organ class): 1 (12.5) n (%)
  Hiccups: 0 n (%)
  Hyperlipidaemia: 0 n (%)
  Hyperuricaemia: 1 (12.5) n (%)
  Hypoglycaemia event: 0 n (%)
  Infections and infestations (system organ class): 2 (25.0) n (%)
  Injury, poisoning and procedural complications (system organ class): 1 (12.5) n (%)
  Investigations (system organ class): 1 (12.5) n (%)
  Menstruation irregular: 0 n (%)
  Mental fatigue: 1 (12.5) n (%)
  Metabolism and nutrition disorders (system organ class): 6 (75.0) n (%)
  Mouth ulceration: 0 n (%)
  Musculoskeletal and connective tissue disorders (system organ class): 0 n (%)
  Myocardial ischemia: 1 (12.5) n (%)
  Nasopharyngitis: 0 n (%)
  Nausea: 3 (37.5) n (%)
  Neutrophil count increased: 1 (12.5) n (%)
  Oropharyngeal pain: 1 (12.5) n (%)
  Proteinuria: 2 (25.0) n (%)
  Psychiatric disorders (system organ class): 1 (12.5) n (%)
  Pyrexia: 0 n (%)
  Renal and urinary disorders (system organ class): 2 (25.0) n (%)
  Reproductive system and breast disorders (system organ class): 0 n (%)
  Respiratory, thoracic and mediastinal disorders (system organ class): 1 (12.5) n (%)
  Serious adverse event: 0 n (%)
  Sinus tachycardia: 1 (12.5) n (%)
  Skin and subcutaneous tissue disorders (system organ class): 0 n (%)
  Soft tissue injury: 0 n (%)
  Starvation: 0 n (%)
  TEAE (individuals with ≥ 1 TEAE): 7 (87.5) n (%)
  Thermal burn: 1 (12.5) n (%)
  Tonsillitis: 0 n (%)
  Treatment-related AE: 7 (87.5) n (%)
  Upper respiratory tract infection: 2 (25.0) n (%)
  Urticaria: 0 n (%)
  Vomiting: 0 n (%)
  White blood cell count increased: 1 (12.5) n (%)
[3]
  Abdominal distension: 0 n (%)
  Abdominal pain: 0 n (%)
  Atrioventricular block first degree: 0 n (%)
  Back pain: 0 n (%)
  Blood glucose increased: 0 n (%)
  Calculus urinary: 0 n (%)
  Cardiac disorders (system organ class): 0 n (%)
  Constipation: 0 n (%)
  Decreased appetite: 1 (12.5) n (%)
  Diarrhea: 3 (37.5) n (%)
  Dry mouth: 0 n (%)
  Dyslipidaemia: 0 n (%)
  Dysmenorrhoea: 0 n (%)
  Dyspepsia: 1 (12.5) n (%)
  Fatigue: 0 n (%)
  Folliculitis: 1 (12.5) n (%)
  Gastrointestinal AE: 4 (50.0) n (%)
  Gastrointestinal AE, Mild: 3 (37.5) n (%)
  Gastrointestinal AE, Moderate: 1 (12.5) n (%)
  Gastrointestinal disorders (system organ class): 4 (50.0) n (%)
  Gastrointestinal inflammation: 0 n (%)
  General disorders and administration site conditions (system organ class): 0 n (%)
  Hiccups: 1 (12.5) n (%)
  Hyperlipidaemia: 0 n (%)
  Hyperuricaemia: 1 (12.5) n (%)
  Hypoglycaemia event: 0 n (%)
  Infections and infestations (system organ class): 1 (12.5) n (%)
  Injury, poisoning and procedural complications (system organ class): 0 n (%)
  Investigations (system organ class): 0 n (%)
  Menstruation irregular: 0 n (%)
  Mental fatigue: 0 n (%)
  Metabolism and nutrition disorders (system organ class): 3 (37.5) n (%)
  Mouth ulceration: 0 n (%)
  Musculoskeletal and connective tissue disorders (system organ class): 0 n (%)
  Myocardial ischemia: 0 n (%)
  Nasopharyngitis: 0 n (%)
  Nausea: 1 (12.5) n (%)
  Neutrophil count increased: 0 n (%)
  Oropharyngeal pain: 0 n (%)
  Proteinuria: 0 n (%)
  Psychiatric disorders (system organ class): 0 n (%)
  Pyrexia: 0 n (%)
  Renal and urinary disorders (system organ class): 0 n (%)
  Reproductive system and breast disorders (system organ class): 0 n (%)
  Respiratory, thoracic and mediastinal disorders (system organ class): 1 (12.5) n (%)
  Serious adverse event: 0 n (%)
  Sinus tachycardia: 0 n (%)
  Skin and subcutaneous tissue disorders (system organ class): 0 n (%)
  Soft tissue injury: 0 n (%)
  Starvation: 1 (12.5) n (%)
  TEAE (individuals with ≥ 1 TEAE): 6 (75.0) n (%)
  Thermal burn: 0 n (%)
  Tonsillitis: 0 n (%)
  Treatment-related AE: 5 (62.5) n (%)
  Upper respiratory tract infection: 0 n (%)
  Urticaria: 0 n (%)
  Vomiting: 1 (12.5) n (%)
  White blood cell count increased: 0 n (%)
12-lead ECG, first 6 weeks, more prominent later, especially 6.0 mg cohort, declining from week 9 (Fig. S3)
  Magnitude of heart rate increase: mild
All IBI362 treatment groups (Fig S4)
  Amylase, lipase and calcitonin levels: increased in all IBI362 treatment groups but remained mostly within the normal reference range
All cohorts
  Discontinuation of the study due to safety reason: No participant discontinued the study due to safety reason
  Hypoglycaemia event or serious adverse event: No hypoglycaemia event or serious adverse event occurred
  Investigator suspected pancreatitis: No investigator suspected pancreatitis was reported
All participants receiving IBI362 (n = 24), 19 participants
  Participants with at least one TEAE: 79.2%
All participants receiving IBI362 (n = 24), four participants
  Nausea: 16.7%
All participants receiving IBI362 (n = 24), seven participants
  Decreased appetite: 29.2%
All participants receiving IBI362 (n = 24), six participants
  Diarrhea: 25.0%
